# Source: patent US20190008160A1, “BACILLUS THURINGIENSIS SUBSP. KURSTAKI AND BACILLUS THURINGIENSIS SUBSP. AIZAWAI COMBINATION FORMULATIONS” (Valent BioSciences Corporation, priority 2015, published 2019)
# Experiments:
# [1] = tested on: insect species with known resistance to chlorantraniliprole; test: Example 6 plot study, yield with insect species resistant to chlorantraniliprole; format: in vivo; settings: rate 30.9 g a.i/ha
# Protocol: (§1) A study was conducted to determine the effect that a synergistic weight ratio of Bacillus thuringiensis subsp. kurstaki and Bacillus thuringiensis subsp. aizawai would have on insect species with known resistance to the commonly used insecticide, chlorantraniliprole. Prevathon™ (available from DuPont™) is a 5% suspension concentrate of chlorantraniliprole and was used as the source of chlorantraniliprole in the following two studies. Sympatico™ emulsifiable suspension concentrate (available from Valent BioSciences Corporation) was used as the source of Bacillus thuringiensis subsp. aizawai and Bacillus thuringiensis kurstaki. Sympatico™ contains about a 60:40 weight ratio of Bacillus thuringiensis subsp. kurstaki fermentation solids, spores and toxins to Bacillus thuringiensis subsp. aizawai fermentation solids, spores and toxins. The plots were planted with cabbage and naturally infested with populations of diamondback moth (Plutella xylostella) and cabbage cluster caterpillar (Crocidolomia pavonana) that were known to be resistant to chlorantraniliprole.
# Another study was conducted to determine the effect that a synergistic weight ratio of Bacillus thuringiensis subsp. kurstaki and Bacillus thuringiensis subsp. aizawai would have on insect species with known resistance to the commonly used insecticide, chlorantraniliprole.
# [2] = tested on: diamondback moth (Plutella xylostella) and cabbage cluster caterpillar (Crocidolomia pavonana) known to be resistant to chlorantraniliprole; test: Example 5 cabbage plot study, yield under chlorantraniliprole-resistant pest infestation; format: in vivo, Plutella xylostella; Crocidolomia pavonana (on cabbage); settings: rate 30.9 g/ha; cabbage plots
# Protocol: as §1
structure (smiles),measurement,setting,value
CNC(=O)c1cc(Cl)cc(C)c1NC(=O)c1cc(Br)nn1-c1ncccc1Cl [Chlorantraniliprole],Yield,[1],88.3 kg/plot
same,Yield,[2],67.0 kg/plot
